From patent publication US20250223306A1, “TEAD INHIBITORS AND METHODS OF USE” (Sporos BioDiscovery, Inc., priority 2022, published 2025)

What was measured:
[1] = tested on: BHY cells; test: BHY proliferation and cell viability assay (CTG); format: cell-based; details: BHY cell line
Method: BHY cells were trypsinised, counted and plated at the specified cell density in 200 μl of growth media in 96 well flat bottom tissue culture treated plates. The plated cells were incubated overnight at 37° C., 5% CO2 before being treated with compounds in triplicate for each assay point. 50 μl of the serially diluted compound was added to each well giving a final DMSO concentration of 0.5% per well and a total volume of 250 μl per well. The treated cells were incubated for 144 hours (6 days) at 37° C., 5% CO2. Following compound treatment, the remaining viable cells were detected using the Promega CellTiter-Glo 2.0 assay as follows: 150 μl of media was removed from each of the wells to be assayed and 100 μl of room temperature CellTiter-Glo 2.0 reagent was added. The plate was placed on an orbital shaker at 500 rpm at room temperature for 2 minutes, and then incubated without shaking for a further 10 minutes at room temperature. 150 μl of cell lysate was removed from each well and dispensed into a single well of a white opaque 96 well plate. Luminescence at 545 nm was read using a BMG CLARIOstar plate reader. The luminescent signal was directly proportional to number of viable cells, the percent of viable cells relative to the DMSO control was then calculated for each assay point. Percent viability relative to DMSO control was plotted against compound concentration and a curve fitted with non-linear regression in GraphPad
Prism software. EC50 and IC50 values are calculated using GraphPad Prism software as follows: For EC50 values, a non-constrained four-parameter logistic curve fit was used (Sigmoidal, 4PL, X is concentration). For Absolute IC50 values the baseline was constrained to Y=0 (Absolute IC50, X is concentration). Area Under the Curve (AUC): Prism computes area-under-the-curve by the trapezoidal method. The analysis sees a fitted curve as simply a series of connected XY points. Prism simply computes the area under the “curve” defined by connecting the points by straight lines. The units of the AUC are the units of the Y axis times units of the X axis.

[2] = target: TEAD1 (Homo sapiens, UniProt P28347); test: TEAD thermal shift assay (TSA); format: binding
TEAD1, sequence (P28347 whole entry): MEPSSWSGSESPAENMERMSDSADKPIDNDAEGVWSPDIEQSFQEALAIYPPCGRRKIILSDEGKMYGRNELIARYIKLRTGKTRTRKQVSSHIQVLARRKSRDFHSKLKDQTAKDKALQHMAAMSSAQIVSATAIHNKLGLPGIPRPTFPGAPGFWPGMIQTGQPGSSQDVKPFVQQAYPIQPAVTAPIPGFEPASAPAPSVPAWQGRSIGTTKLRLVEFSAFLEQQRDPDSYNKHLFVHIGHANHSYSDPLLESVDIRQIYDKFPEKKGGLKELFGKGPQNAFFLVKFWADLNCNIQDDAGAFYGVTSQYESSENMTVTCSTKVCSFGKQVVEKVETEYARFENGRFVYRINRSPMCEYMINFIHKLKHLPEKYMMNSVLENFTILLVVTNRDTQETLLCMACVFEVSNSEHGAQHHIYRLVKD
Excerpt: (§1) Thermal shift assay (TSA) is a biophysical method to evaluate stability of proteins with change in temperature. The assay measures thermal denaturation temperature in varying conditions such as different drug concentration. For this example, fluorogenic dye was used that bind to unfolded proteins. SYPRO Orange binds non-specifically to hydrophobic surfaces, and water strongly quenches its fluorescence. When the protein unfolds, the exposed hydrophobic surfaces bind the dye, resulting in an increase in fluorescence by excluding water. Detergent micelles also bind the dye and increase background noise dramatically. Binding of small molecules to proteins leads to a stabilization against to thermal denaturation with the degree of thermal stabilization proportional to the strength of binding.
(§2) The study described in this example investigated the change in melting temperature (ΔTm) of TEAD isoforms 1˜4 when treated with TEAD inhibitors. Compound 1-1-a known strong TEAD1 and weak TEAD2 inhibitor; as well as Compound 1-4-a pan-TEAD inhibitor were used as controls.
(§3) Tris-HCL was dissolved in 5 mL of Cell culture grade water and allowed to dissolve completely. The pH was adjusted to 8 using NaOH. Additional assay buffer components were added in the order listed above. The buffer was mixed slowly.
(§4) Assay buffer was prepared according to the procedures outlined above and dispensed into test wells. Spyro orange was added to a concentration of 5× in the assay buffer, followed by test compound stock solution which was added to a concentration of 10 μM or 30 μM in the assay buffer.
(§5) The melt cycle was performed in Bio-RAD PCR instrument from 20-95° C. with ramp rate of 1° C./min.

[3] = target: TEAD2 (Homo sapiens, UniProt Q15562); test: TEAD thermal shift assay (TSA); format: binding
TEAD2, sequence (Q15562 whole entry): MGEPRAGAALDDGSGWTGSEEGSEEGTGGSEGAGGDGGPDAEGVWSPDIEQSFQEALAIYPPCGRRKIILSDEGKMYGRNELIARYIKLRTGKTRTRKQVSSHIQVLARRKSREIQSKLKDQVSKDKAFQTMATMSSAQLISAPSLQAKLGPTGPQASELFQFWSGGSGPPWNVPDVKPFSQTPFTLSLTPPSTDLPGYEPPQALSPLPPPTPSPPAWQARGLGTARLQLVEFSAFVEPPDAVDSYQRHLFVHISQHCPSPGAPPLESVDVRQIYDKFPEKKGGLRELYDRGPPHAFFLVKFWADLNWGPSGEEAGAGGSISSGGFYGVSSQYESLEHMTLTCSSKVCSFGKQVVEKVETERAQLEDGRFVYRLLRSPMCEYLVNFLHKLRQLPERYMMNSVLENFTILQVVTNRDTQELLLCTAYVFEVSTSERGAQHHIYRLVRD
Excerpt: as §1, §2, §3, §4, §5

[4] = target: TEAD3 (Homo sapiens, UniProt Q99594); test: TEAD thermal shift assay (TSA); format: binding
TEAD3, sequence (Q99594 whole entry): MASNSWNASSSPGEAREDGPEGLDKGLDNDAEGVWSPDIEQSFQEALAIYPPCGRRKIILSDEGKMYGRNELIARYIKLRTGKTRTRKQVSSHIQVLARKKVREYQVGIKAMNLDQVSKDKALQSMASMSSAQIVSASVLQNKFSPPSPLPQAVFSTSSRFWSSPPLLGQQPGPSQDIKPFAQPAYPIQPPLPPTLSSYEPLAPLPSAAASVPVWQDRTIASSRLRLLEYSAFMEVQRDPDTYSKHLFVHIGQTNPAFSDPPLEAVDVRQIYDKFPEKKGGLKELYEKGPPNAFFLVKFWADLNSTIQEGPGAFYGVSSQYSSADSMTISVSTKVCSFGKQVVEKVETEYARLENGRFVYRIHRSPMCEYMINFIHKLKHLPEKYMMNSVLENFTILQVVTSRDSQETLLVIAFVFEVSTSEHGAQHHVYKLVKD
Excerpt: as §1, §2, §3, §4, §5

[5] = target: TEAD4 (Homo sapiens, UniProt Q15561); test: TEAD thermal shift assay (TSA); format: binding
TEAD4, sequence (Q15561 whole entry): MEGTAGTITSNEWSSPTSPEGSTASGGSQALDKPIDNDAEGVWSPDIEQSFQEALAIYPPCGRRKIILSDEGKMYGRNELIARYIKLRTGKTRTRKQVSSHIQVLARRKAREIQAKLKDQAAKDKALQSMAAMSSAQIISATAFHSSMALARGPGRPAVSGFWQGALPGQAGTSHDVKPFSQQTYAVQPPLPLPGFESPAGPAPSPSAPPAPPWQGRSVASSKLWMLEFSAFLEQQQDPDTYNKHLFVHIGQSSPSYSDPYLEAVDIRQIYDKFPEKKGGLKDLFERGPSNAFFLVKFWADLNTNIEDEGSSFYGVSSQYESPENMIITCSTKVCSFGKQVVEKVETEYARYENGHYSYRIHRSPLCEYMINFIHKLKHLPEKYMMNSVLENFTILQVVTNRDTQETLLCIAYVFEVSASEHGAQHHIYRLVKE
Excerpt: as §1, §2, §3, §4, §5

[6] = tested on: LOU-NH91 cells; test: LOU-NH91 proliferation and cell viability assay (CTG); format: cell-based; details: LOU-NH91 cell line, 216 hours
Method: LOU-NH91 cells were trypsinised, counted and plated at the specified cell density in 200 μl of growth media in 96 well flat bottom tissue culture treated plates. The plated cells were incubated overnight at 37° C., 5% CO2 before being treated with compounds in triplicate for each assay point. 50 μl of the serially diluted compound was added to each well giving a final DMSO concentration of 0.5% per well and a total volume of 250 μl per well. The treated cells were incubated for 216 hours (9 days) at 37° C., 5% CO2. Following compound treatment, the remaining viable cells were detected using the Promega CellTiter-Glo 2.0 assay as follows: 150 μl of media was removed from each of the wells to be assayed and 100 μl of room temperature CellTiter-Glo 2.0 reagent was added. The plate was placed on an orbital shaker at 500 rpm at room temperature for 2 minutes, and then incubated without shaking for a further 10 minutes at room temperature. 150 μl of cell lysate was removed from each well and dispensed into a single well of a white opaque 96 well plate. Luminescence at 545 nm was read using a BMG CLARIOstar plate reader. The luminescent signal was directly proportional to number of viable cells, the percent of viable cells relative to the DMSO control was then calculated for each assay point. Percent viability relative to DMSO control was plotted against compound concentration and a curve fitted with non-linear regression in GraphPad Prism software. EC50 and IC50 values were calculated using GraphPad Prism software as follows: For EC50 values a non-constrained four-parameter logistic curve fit was used (Sigmoidal, 4PL, X is concentration). For Absolute IC50 values the baseline was constrained to Y=0 (Absolute IC50, X is concentration). Area Under the Curve (AUC): Prism computes area-under-the-curve by the trapezoidal method. The analysis sees a fitted curve as simply a series of connected XY points. Prism simply computes the area under the “curve” defined by connecting the points by straight lines. The units of the AUC are the units of the Y axis times units of the X axis.

[7] = tested on: SDM103T2 cells; test: SDM103T2 proliferation and cell viability assay (CTG); format: cell-based; details: SDM103T2 cell line, 144 hours
Method: SDM103T2 cells were trypsinised, counted and plated at the specified cell density in 200 μl of growth media in 96 well flat bottom tissue culture treated plates. The plated cells were incubated overnight at 37° C., 5% CO2 before being treated with compounds in triplicate for each assay point. 50 μl of the serially diluted compound was added to each well giving a final DMSO concentration of 0.5% per well and a total volume of 250 μl per well. The treated cells were incubated for 144 hours (6 days) at 37° C., 5% CO2. Following compound treatment the remaining viable cells were detected using the Promega CellTiter-Glo 2.0 assay as follows: 150 μl of media was removed from each of the wells to be assayed and 100 μl of room temperature CellTiter-Glo 2.0 reagent was added. The plate was placed on an orbital shaker at 500 rpm at room temperature for 2 minutes, and then incubated without shaking for a further 10 minutes at room temperature. 150 μl of cell lysate was removed from each well and dispensed into a single well of a white opaque 96 well plate. Luminescence at 545 nm was read using a BMG CLARIOstar plate reader. The luminescent signal was directly proportional to number of viable cells, the percent of viable cells relative to the DMSO control was then calculated for each assay point. Percent viability relative to DMSO control was plotted against compound concentration and a curve fitted with non-linear regression in GraphPad Prism software. EC50 and IC50 values were calculated using GraphPad Prism software as follows: For EC50 values a non-constrained four-parameter logistic curve fit was used (Sigmoidal, 4PL, X is concentration). For Absolute IC50 values the baseline was constrained to Y=0 (Absolute IC50, X is concentration). Area Under the Curve (AUC): Prism computes area-under-the-curve by the trapezoidal method. The analysis sees a fitted curve as simply a series of connected XY points. Prism simply computes the area under the “curve” defined by connecting the points by straight lines. The units of the AUC are the units of the Y axis times units of the X axis.

[8] = tested on: NCI-H226 xenograft; test: Inhibition of mouse xenograft NCI-H226 tumors; format: in vivo, BALB/c nude mice; details: Day 27; 3 mg/kg, p.o., QD
Excerpt: This study evaluated the in vivo therapeutic efficacy of TEAD inhibitors in the treatment of the subcutaneous lung cancer NCI-H226 xenograft model in female BALB/c nude mice.
• ANOVA Analysis of variance • BW Body weight • BWL Body weight loss • FFPE Formalin fixed paraffin embedded • IACUC Institutional animal care and use committee • MTV Mean tumor volume • N/A Not available or not applicable • p.o. Oral (ly) • QD Once a day • REG REG=[(T0−Ti)/T0]×100%; • Ti as the mean tumor volume of the treatment group on the measurement day; • T0 as the mean tumor volume of the treatment group on Day 0. • ROA Route of administration • RT Room temperature • RTV Relative tumor volume • SD Standard deviation • SEM Standard error of mean • SOC Standard of care used in clinical setting for a specific disease • TBD To be determined • T/C The Ti/Ci value (%): T/C %=Ti/Ci×100; • Ti and Ci are the mean tumor volumes of the treatment and control groups, respectively, on a given day. • TGI Tumor growth inhibition; TGI %=(1−Ti/Ci)×100; • Ti and Ci are the mean tumor volumes of the treatment and control groups, respectively, on a given day. • TV Tumor volume • PK/PD Pharmacokinetics/Pharmacodynamics • ΔInhibition Mean % ΔInhibition=((Ci−C0)−(Ti−T0))/(Ci−C0)*100% • Ti and Ci are the mean tumor volumes of the treatment and control groups, respectively, on a given day. T0 and C0 as the mean tumor volumes of the treatment and vehicle groups on Day 0.
• Species Mus musculus • Strain Balb/c nude • Supplier GemPharmatech Co., Ltd • Gender Female • No. of Animals Ordered 68 (45 plus 23 spare) • No. of Animals Assigned 45 • to Study • Average Age of Animals 6-8 weeks • at Study Initiation
The NCI-H226 cells (CL-00364) cancer cells were maintained in vitro with RPMI1640 medium supplemented with 10% fetal bovine serum at 37° C. in an atmosphere of 5% CO2 in the air. The cells in exponential growth phase were harvested and quantitated by cell counter before tumor inoculation.
Each mouse was inoculated subcutaneously in the right front flank region with NCI-H226 tumor cells (1×10^7) in 0.2 ml of PBS mixed with Matrigel (1:1) for tumor development.
The randomization was performed when the mean tumor size reached 138.81 mm^3. 45 mice were enrolled in the study. All animals were randomly allocated to 9 study groups, 5 mice in each group. Randomization was performed based on “Matched distribution” method/“Stratified” method (StudyDirector™ software, version 3.1.399.19)/randomized block design. The date of randomization was denoted as day 0.
The treatment was initiated on the same day of randomization (day 0) per study design.
After tumor cells inoculation, the animals were checked daily for morbidity and mortality. During routine monitoring, the animals were checked for any effects of tumor growth and treatments on behavior such as mobility, food and water consumption, body weight gain/loss (Body weights were measured twice per week after randomization), eye/hair matting and any other abnormalities. Mortality and observed clinical signs were recorded for individual animals in detail.
Tumor volumes were measured twice per week after randomization in two dimensions using a caliper, and the volume was expressed in mm^3 using the formula: “V=(L×W×W)/2, where V is tumor volume, L is tumor length (the longest tumor dimension) and W is tumor width (the longest tumor dimension perpendicular to L). Dosing as well as tumor and body weight measurements were conducted in a Laminar Flow Cabinet.
To compare tumor volumes of different groups at a pre-specified day, Bartlett's test was first used to check the assumption of homogeneity of variance across all groups. When the p-value of Bartlett's test was >=0.05, one-way ANOVA was performed to test overall equality of means across all groups. […]

[9] = ratio of protein to compound 1:1
[10] = ratio of protein to compound 1:3

| TEAD1 ΔTm [2, 9] | TEAD1 ΔTm [2, 10] | TEAD2 ΔTm [3, 9] | TEAD3 ΔTm [4, 9] | TEAD4 ΔTm [5, 9] | TEAD4 ΔTm [5, 10] | Structure (SMILES) | EC50 ([1]; 144 h) | EC50 [6] | EC50 ([1]; 144 hours) | further results |
| --- | --- | --- | --- | --- | --- | --- | --- | --- | --- | --- |
| 9 °C | 10 °C | 2 °C | 4 °C | 5 °C | 7 °C | C[C@H](CO)NC(=O)c1cnc2c(C3=CCC(C(F)(F)F)CC3)cccc2c1 (single isomer, unassigned) [Compound 81] | < 200 nM | < 200 nM | – | TEAD2 ΔTm [3, 10]: 3 °C; TEAD3 ΔTm [4, 10]: 5 °C |
| – | – | – | – | – | – | C[C@H](CO)NC(=O)c1cnc2c(C3=CCC(C(F)(F)F)CC3)cccc2c1 (single isomer, unassigned) [Compound 82] | – | < 200 nM | 200 to 1000 nM | – |
| – | – | – | – | – | – | COC[C@H](CO)NC(=O)c1cnc2c(C3=CCC(C(F)(F)F)CC3)cccc2c1 (single isomer, unassigned) [Compound 103] | < 200 nM | < 200 nM | – | – |
| – | – | – | – | – | – | COC[C@H](CO)NC(=O)c1cnc2c(C3=CCC(C(F)(F)F)CC3)cccc2c1 (single isomer, unassigned) [Compound 104] | – | < 200 nM | < 200 nM | – |
| 2 °C | 8 °C | 1 °C | 0 °C | 0 °C | 1 °C | CNS(=O)(=O)c1ccc(Nc2ccc(C(F)(F)F)cc2)c(-c2cn(C)cn2)c1 [Compound 1-1, reference compound] | – | – | – | EC50 [7]: < 200 nM; thermal shift / binding across TEAD isoforms, in words ([2]; summary of Table 14 over TEAD1-4): pronounced thermal shift only for TEAD1; T/C [8]: 12.51%; TGI [8]: 87.49%; Tumor Volume (mean ± SEM) [8]: 66.85 ± 12.17 mm^3 |
